# Measurements reported in patent US8067532B2, “Modifications of peptide compositions to increase stability and delivery efficiency” (KAI Pharmaceuticals, Inc., priority 2007, dated 2011).
# No end group written: not given here.
# Tests used:
# [1] = Plasma stability of capped peptides (KAI-9706 modified step-wise at amino and carboxy termini); type: in vitro ADME, rat; settings: versus uncapped KAI-9706
# Text: Plasma stability of capped peptides was compared.
# cardiac tissue = assay: Langendorff assay, in vitro post-ischemia model (CK release); parameters: species or system rat; settings: versus the unmodified form
# Description: The ability of the capped composition to inhibit ischemic damage in a rat heat model (Langendorff Assay) was evaluated versus the uncapped form.
# brain tissue = assay: Stroke model, percent infarction; type: in vivo; settings: versus uncapped KAI-9706
# Description: KAI-1455 was tested in a stroke model.
# [2] = versus KAI-9706 and KAI-9803
# [3] = versus KAI-9706 and KAI-9803; remark: listed apart in the source
# [4] = versus KAI-9706 and KAI-9803; remark: listed apart in the source
# [5] = Effect of D-peptides on plasma stability of KAI-9706; settings: All-L, scrambled or retro-inverso (R/I) carrier and cargo
# Description: KAI-9706 was engineered with D-amino acids to determine their impact on peptide composition stability. Unmodified KAI-9706 was compared to a peptide composition with the same amino acid sequence, however the amino acids used were d-enantiomers instead of 1-amino acids. A retro-inverso version and a scrambled version of the peptide composition were also prepared.
# [6] = In vitro biological stability of linear epsilon PKC inhibitors in human serum; type: in vitro ADME; settings: LC/MS; for stability in human serum (percent remaining over time): 100 μg/ml, room temperature
# Description: The peptides were then analyzed by LC/MS.
compound,measurement,setting,value
CC[C@H](C)[C@H](NC(=O)[C@@H]1CCCN1C(=O)[C@H](C)NC(=O)[C@H](CC(=O)O)NC(=O)[C@H](Cc1c[nH]cn1)NC(=O)[C@@H](N)CSSC[C@H](NC(C)=O)C(=O)N[C@@H](Cc1ccc(O)cc1)C(=O)NCC(=O)N[C@@H](CCCNC(=N)N)C(=O)N[C@@H](CCCCN)C(=O)N[C@@H](CCCCN)C(=O)N[C@@H](CCCNC(=N)N)C(=O)N[C@@H](CCCNC(=N)N)C(=O)N[C@@H](CCC(N)=O)C(=O)N[C@@H](CCCNC(=N)N)C(=O)N[C@@H](CCCNC(=N)N)C(=O)N[C@@H](CCCNC(=N)N)C(N)=O)C(=O)NCC(=O)N[C@@H](Cc1ccc(O)cc1)C(=O)N[C@@H](CC(=O)O)C(=O)O [KAI-1455],plasma half life,[1],increase the plasma half life
same,"ability to inhibit ischemic damage (potency, CK release)",cardiac tissue,Maintains In Vitro Potency
same,protection to brain tissue as judged by percent infract,brain tissue,increased protection to brain tissue
same,stability in human serum (percent intact over time),[2],increased plasma stability
same,stability in pig serum (percent intact over time),[3],increased plasma stability
same,stability in rat serum (percent intact over time),[4],increased plasma stability
CC[C@H](C)[C@H](NC(=O)[C@@H]1CCCN1C(=O)[C@H](C)NC(=O)[C@H](CC(=O)O)NC(=O)[C@H](Cc1c[nH]cn1)NC(=O)[C@@H](N)CSSC[C@H](N)C(=O)N[C@@H](Cc1ccc(O)cc1)C(=O)NCC(=O)N[C@@H](CCCNC(=N)N)C(=O)N[C@@H](CCCCN)C(=O)N[C@@H](CCCCN)C(=O)N[C@@H](CCCNC(=N)N)C(=O)N[C@@H](CCCNC(=N)N)C(=O)N[C@@H](CCC(N)=O)C(=O)N[C@@H](CCCNC(=N)N)C(=O)N[C@@H](CCCNC(=N)N)C(=O)N[C@@H](CCCNC(=N)N)C(=O)O)C(=O)NCC(=O)N[C@@H](Cc1ccc(O)cc1)C(=O)N[C@@H](CC(=O)O)C(=O)O [KAI-9706],% parent remaining at 15 mins,[5],1%
Ac-EAVSLKPTGGYGRKKRRQRRR-NH2 [KP-1678],stability in human serum (percent remaining over time),[6],increased stability
EAVSLKPTGGYGRKKRRQRRR-NH2 [KP-1633],stability in human serum (percent remaining over time),[6],increased stability
KP-1680: linear epsilon PKC inhibitor peptide shown in FIG. 16 (EAVSLKPTGGYGRKKRRQRRR),degradation products / metabolized forms,[6]; serum,sequential cleavage of arginine residues from the C-terminus
